Holding throughout (type): in vivo
Data set [1] concerns ECHINOCHLOA ORYZOIDES (ARD.)FRITSCH. In words: Preemergence weed control under flooded paddy conditions, ECHORC (Watergrass (Calif.)). Conditions: 0.500 kg/ha, preemergence, 3-4 weeks after treatment. As for the experimental part: (§1) Results of herbicide evaluation are expressed on a rating scale (0-9). The scale is based upon a visual observation of plant stand, vigor, malformation, size, chlorosis and overall plant appearance as compared with a control.
(§2) Preemergence herbicidal activity under flooded paddy conditions is determined as follows: plant seeds or propagating organs are planted in the top 0.5 cm of silt loam soil in 32 oz. plastic containers with a diameter of 10.5 cm and no drainage holes. Water is added to these containers and maintained at 1.5 to 3 cm above the soil surface for the duration of the experiment. […] The treated containers are placed on greenhouse benches and cared for according to normal greenhouse procedures.- Three to four weeks after treatment the test is terminated and each container is examined and herbicidal effect rated according to the rating system provided in Example 40. The compounds evaluated are reported by compound number given in Example 40.
(§3) Plant species employed in this example are reported by header abbreviation, common name and scientific name.

In data set [2] the test system is GLYCINE MAX(L) MERR. CV. WILLIAMS
As to the kind of experiment: Postemergence herbicidal evaluation, GLXMAW (Soybean, Williams). Also noted: key to GLXMAW rating / Herbicidal effect rating, GLXMAW / GLXMAW: 0-9 visual rating scale vs untreated control. As to the method: (§4) In the tests, seedling plants are grown in jiffy flats for about two weeks. The test compounds are dispersed in 50/50 acetone/water mixtures containing 0.5% TWEEN®20, a polyoxyethylene sorbitan monolaurate surfactant of Atlas Chemical Industries, in sufficient quantities to provide the equivalent of about 0.125 kg to 0.500 kg per hectare of active compound when applied to the plants through a spray nozzle operating at 40 psi for a predetermined time. After spraying, the plants are placed on greenhouse benches and are cared for in the usual manner, commensurate with conventional greenhouse practices. From four to five weeks after treatment, the seedling plants are examined and rated according to the rating system set forth below. Where more than one test is involved for a given compound, the data are averaged.
(§5) Plant species employed in these evaluations are reported by header abbreviation, common name and scientific name.
as §1

In the next data set the test system is GALIUM APARINE. In words: Postemergence herbicidal evaluation, GALAP (Galium). More on the design: key to GALAP rating / Herbicidal effect rating, GALAP / GALAP: 0-9 visual rating scale vs untreated control. As for the experimental part: as §4, §5, §1
A further data set relates to CASSIA OBTUSIFOLIA, L. As to the kind of experiment: Postemergence herbicidal evaluation, CASOB (Sicklepod). More on the design: key to CASOB rating / Herbicidal effect rating, CASOB / CASOB: 0-9 visual rating scale vs untreated control. Summed up:
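Visual 0–9 scores reflect stand, vigor, malformation, size, chlorosis and overall appearance relative to control, taken 4–5 weeks after spraying two-week-old seedlings with about 0.125–0.500 kg/ha compound in acetone/water/TWEEN 20.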

The next data set concerns CYPERUS IRIA. In words: Preemergence weed control under flooded paddy conditions, CYPIR (Rice Flatsedge). Conditions: 0.500 kg/ha, preemergence, 3-4 weeks after treatment. As for the experimental part:
as §1, §2, §3

Another data set relates to IPOMOEA SPP. In words: Postemergence herbicidal evaluation, IPOSS (Morningglory spp.). Summed up:
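Seedlings of morningglory (Ipomoea spp.) were raised in jiffy flats for roughly two weeks. They were then sprayed postemergence through a nozzle at 40 psi with test compound dispersed in 50/50 acetone/water containing 0.5% TWEEN®20 surfactant. Plants were kept on greenhouse benches under standard care and visually rated 0-9 against controls four to five weeks after treatment.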

Another data set has as its system SAGITTARIA PYGMAEA, L. As to the kind of experiment: Preemergence weed control under flooded paddy conditions, SAGPY (Arrowhead (Pygmaea)). Conditions: 0.500 kg/ha, preemergence, 3-4 weeks after treatment. The method in brief:
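Seeds or propagules sown in top 0.5 cm of silt loam in undrained containers, flooded 1.5 to 3 cm throughout. Compounds in aqueous/acetone 50/50 v/v pipetted into flood water at about 0.5, 0.25, 0.125 and 0.063 kg/ha. Visual 0-9 rating versus control after three to four weeks in greenhouse.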

Data set [3] concerns ABUTILON THEOPHRASTI, MEDIC. In words: Postemergence herbicidal evaluation, ABUTH (Velvetleaf). The method in brief:
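Velvetleaf (Abutilon theophrasti) seedlings were raised in jiffy flats for about two weeks and then sprayed postemergence. The test compound was dispersed in a 50/50 acetone/water mixture containing 0.5% TWEEN®20 and applied through a nozzle operating at 40 psi. Plants were kept on greenhouse benches and rated 0-9 four to five weeks after treatment.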

The test system of data set [4] is ORYZA SATIVA, L. TEBONNET
In words: Rice tolerance to post-transplant applications under flooded paddy conditions, ORYSAT (Rice, Tebonnet). Conditions: 0.500 kg/ha, post-transplant rice, 3-4 weeks after treatment. Summed up:
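Two ten-day-old Tebonnet rice seedlings were transplanted into silt loam and kept flooded 1.5 to 3 cm deep. Three days after transplanting, the flood surface received the compound in aqueous/acetone 50/50 v/v at about 0.5, 0.25, 0.125 or 0.063 kg/ha. Injury was rated visually on a 0-9 scale versus control after 3-4 weeks.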

The test system of data set [5] is AMBROSIA ARTEMISIIFOLIA, L. In words: Postemergence herbicidal evaluation, AMBEL (Ragweed, Common). Summed up: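 Common ragweed (Ambrosia artemisiifolia) seedlings were raised in jiffy flats for roughly two weeks, then sprayed postemergence through a nozzle at 40 psi with the test compound dispersed in 50/50 acetone/water carrying 0.5% TWEEN®20. The plants were kept on greenhouse benches under conventional care. Four to five weeks later, injury was rated visually on a 0-9 scale, and repeat tests were averaged.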

Data set [6] has as its system SETARIA VIRIDIS, (L) BEAU. As to the kind of experiment: Postemergence herbicidal evaluation, SETVI (Foxtail, Green). Also noted: key to SETVI rating / Herbicidal effect rating, SETVI / SETVI: 0-9 visual rating scale vs untreated control. As for the experimental part:
as §4, §5, §1

The test system of data set [7] is ECHINOCHLOA CRUS-GALLI, (L) BEAU. In words: Postemergence herbicidal evaluation, ECHCG (Barnyardgrass). Also noted: key to ECHCG rating / Herbicidal effect rating, ECHCG / ECHCG: 0-9 visual rating scale vs untreated control. As to the method:
as §4, §5, §1

In the next data set the test system is […], PRESL. As to the kind of experiment: Preemergence weed control under flooded paddy conditions, MOOVA (Monochoria). Conditions: 0.500 kg/ha, preemergence, 3-4 weeks after treatment. As to the method: as §1
Preemergence herbicidal activity under flooded paddy conditions is determined as follows: plant seeds or propagating organs are planted in the top 0.5 cm of silt loam soil in 32 oz. plastic containers with a diameter of 10.5 cm and no drainage holes. Water is added to these containers and maintained at 1.5 to 3 cm above the soil surface for the duration of the experiment. The test compounds are applied as aqueous/acetone mixtures 50/50 v/v pipetted directly into the flood water to give the equivalent of about 0.5, 0.25, 0.125 and 0.063 kg/ha of active ingredient. The treated containers are placed on greenhouse benches and cared for according to normal greenhouse procedures.- Three to four weeks after treatment the test is terminated and each container is examined and herbicidal effect rated according to the rating system provided in Example 40. The compounds evaluated are reported by compound number given in Example 40.
as §3

The subject of data set [8] is CYPERUS SEROTINUS, ROTTB. In words: Preemergence weed control under flooded paddy conditions, CYPSE (Flatsedge). To be noted: 0.500 kg/ha, preemergence, 3-4 weeks after treatment. As to the method:
as §1, §2, §3

In a further data set the test system is CHENOPODIUM ALBUM, L. As to the kind of experiment: Postemergence herbicidal evaluation, CHEAL (Lambsquarters, Common). The method in brief: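 Seedlings of common lambsquarters (Chenopodium album) were raised in jiffy flats for roughly two weeks, then sprayed postemergence through a nozzle at 40 psi with test compound dispersed in 50/50 acetone/water containing 0.5% TWEEN®20 surfactant. Plants were kept on greenhouse benches under standard care and rated visually on a 0-9 scale versus controls.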

Data set [9] has as its system ECHINOCHLOA CRUS-GALLI, (L) BEAU. In words: Preemergence herbicidal evaluation, ECHCG (Barnyardgrass). Conditions: rated four to five weeks after treatment.
From the text: as §1
(§6) The preemergence herbicidal activity of the test compounds of the present invention is exemplified by the following tests in which the seeds of a variety of monocotyledonous and dicotyledonous plants are separately mixed with potting soil and planted on top of approximately one inch of soil in separate pint cups. […] The treated cups are then placed on greenhouse benches, watered and cared for in accordance with conventional greenhouse procedures. From four to five weeks after treatment, the tests are terminated and each cup is examined and rated according to the rating system provided in Example 40.
(§7) The compounds evaluated are reported by compound number given in Example 40.

The test system of data set [10] is GLYCINE MAX(L) MERR. CV. WILLIAMS
As to the kind of experiment: Preemergence herbicidal evaluation, GLXMAW (Soybean, Williams). Conditions: rated four to five weeks after treatment.
From the text: as §1, §6, §7

The subject of data set [11] is ORYZA SATIVA, L. TEBONNET
In words: Postemergence herbicidal evaluation, ORYSAT (Rice, Tebonnet). Also noted: key: 0-9 visual rating scale vs untreated control. As to the method: as §4, §5, §1

On to `COC(=O)Cn1c(=O)n(C)c(=O)n(-c2cc(Oc3cc(Cl)cc(Cl)c3Cl)ccc2[N+](=O)[O-])c1=O` [Compound 25, Methyl 3-[2-nitro-5-(2,3,5-trichloro-phenoxy)phenyl]tetrahydro-5-methyl-2,4,6-trioxo-s-triazine-1(2H)-acetate], for which the “Herbicidal effect rating, ECHORC” value in [1] is given as 0.0. In addition, the GLXMAW rating in [2] (Rate 0.125 kg/ha), in data set [2] (Rate 0.250 kg/ha) and in data set [2] (Rate 0.500 kg/ha) was 0.0 each time. Also, the GALAP rating with GALIUM APARINE (Rate 0.125 kg/ha), in the data set on GALIUM APARINE (Rate 0.250 kg/ha) and in the data set with GALIUM APARINE (Rate 0.500 kg/ha) was 0.0 in each case. For the same molecule, the CASOB rating in the data set on CASSIA OBTUSIFOLIA, L. (Rate 0.125 kg/ha) is reported as 0.0; in the data set on CASSIA OBTUSIFOLIA, L. (Rate 0.250 kg/ha) it was 0.0; in the data set on CASSIA OBTUSIFOLIA, L. (Rate 0.500 kg/ha) it was 0.0. Besides, the “Herbicidal effect rating, CYPIR” value in the data set on CYPERUS IRIA amounted to 0.0. The IPOSS rating in the data set with IPOMOEA SPP. (Rate 0.125 kg/ha), in the data set with IPOMOEA SPP. (Rate 0.250 kg/ha) and in the data set on IPOMOEA SPP. (Rate 0.500 kg/ha) was 0.0 throughout. The “Herbicidal effect rating, SAGPY” value in the data set with SAGITTARIA PYGMAEA, L. came to 0.0. Moreover, the ABUTH rating in data set [3] (Rate 0.125 kg/ha), in [3] (Rate 0.250 kg/ha) and in [3] (Rate 0.500 kg/ha) was 0.0 each time. Moreover, the “Herbicidal effect rating, ORYSAT” value in [4] came to 0.0. The AMBEL rating in data set [5] (Rate 0.125 kg/ha), in data set [5] (Rate 0.250 kg/ha) and in data set [5] (Rate 0.500 kg/ha) was 0.0 in each case. Moreover, the SETVI rating in [6] (Rate 0.125 kg/ha), in data set [6] (Rate 0.250 kg/ha) and in data set [6] (Rate 0.500 kg/ha) was 0.0 in each case. In addition, the ECHCG rating in data set [7] (Rate 0.125 kg/ha), in data set [7] (Rate 0.250 kg/ha) and in data set [7] (Rate 0.500 kg/ha) was 0.0 throughout. The “Herbicidal effect rating, MOOVA” value in data set […], PRESL. was determined as 0.0. For the same molecule, in data set [8], the “Herbicidal effect rating, CYPSE” value is listed as 0.0. For the same molecule, the CHEAL rating with CHENOPODIUM ALBUM, L. (Rate 0.125 kg/ha) is recorded as 0.0; in the data set on CHENOPODIUM ALBUM, L. (Rate 0.250 kg/ha), 0.0; with CHENOPODIUM ALBUM, L. (Rate 0.500 kg/ha), 0.0.

As for `COC(=O)Cn1c(=O)n(C)c(=O)n(-c2cc(Oc3cc(OC)c(Cl)cc3Cl)ccc2[N+](=O)[O-])c1=O` [Compound 29, Methyl 3-[5-(2,4-dichloro-5-methoxyphenoxy)-2-nitrophenyl]tetrahydro-5-methyl-2,4,6-trioxo-s-triazine-1(2H)-acetate], in data set [1], the “Herbicidal effect rating, ECHORC” value stood at 0.0. Moreover, the ECHCG herbicidal rating in data set [9] (Rate 0.125 kg/ha), in data set [9] (Rate 0.250 kg/ha) and in data set [9] (Rate 0.500 kg/ha) was 0.0 each time. For the same molecule, the “Herbicidal effect rating, CYPIR” value with CYPERUS IRIA turned out to be 0.0. For the same molecule, the GLXMAW herbicidal rating in data set [10] (Rate 0.125 kg/ha), in [10] (Rate 0.250 kg/ha) and in data set [10] (Rate 0.500 kg/ha) was 0.0 each time. Moreover, the “Herbicidal effect rating, SAGPY” value with SAGITTARIA PYGMAEA, L. is reported as 0.0. Besides, in data set [4], the “Herbicidal effect rating, ORYSAT” value amounted to 0.0. For the same molecule, the “Herbicidal effect rating, MOOVA” value in data set […], PRESL. amounted to 0.0. For the same molecule, in data set [8], the “Herbicidal effect rating, CYPSE” value turned out to be 0.0.

Take `COC(=O)Cn1c(=O)n(C)c(=O)n(-c2cc(Oc3cc(F)c(F)cc3F)ccc2[N+](=O)[O-])c1=O` [Compound 30]: in [1], the “Herbicidal effect rating, ECHORC” value is on record as 0.0. Moreover, the “Herbicidal effect rating, CYPIR” value with CYPERUS IRIA is given as 0.0. Moreover, the ORYSAT rating in data set [11] (Rate 0.125 kg/ha), in [11] (Rate 0.250 kg/ha) and in [11] (Rate 0.500 kg/ha) was 3.0 throughout. The “Herbicidal effect rating, SAGPY” value in the data set on SAGITTARIA PYGMAEA, L. came out at 0.0. The “Herbicidal effect rating, ORYSAT” value in [4] amounted to 1.0. Also, the “Herbicidal effect rating, MOOVA” value in data set […], PRESL. was 0.0. The “Herbicidal effect rating, CYPSE” value in data set [8] was 0.0.

These data come from patent EP0745595A1, “3-(3-Aryloxyphenyl)-1-(substituted methyl)-s-triazine-2,4,6-oxo or thiotrione herbicidal agents” (American Cyanamid Company, priority 1995, dated 1996).
